Source: PMC6085350, “Small molecule inhibitors of RAS-effector protein interactions derived using an intracellular antibody fragment” (Nature Communications, 2018)

What was measured:
KRAS^G12V-GppNHp = biological target: T1, KRAS^G12V-GppNHp (Homo sapiens, UniProt P01116, G12V); assay: SPR binding to KRAS G12V-GppNHp; conditions: 100 μM, run in triplicate
T1 construct: made in house; host or cells: E. coli (pGEX-2T; strain named only for the HRAS plasmids)
Procedure: A BIAcore T100 (GE Healthcare) was used to screen the fragment library for RAS binders. A polyclonal goat anti-GST antibody (GE Healthcare) was immobilized on a CM5 sensor chip (GE Healthcare) by the amine coupling method. To immobilize the antibody on CM5 chip, the chip was first activated by injecting 100 µl mixture of 0.2 M EDC (N-ethyl-N-(dimethylaminopropyl) carbodiimide hydrochloride) and 0.05 M NHS (N-hydroxysuccinimide) at 10 µl/min flow rate. Furthermore, 100 µg/ml anti-GST antibody in 10 mM sodium acetate, pH 5.0 was injected at 5 µl/min for 900 s and immobilized until 20,000 ~ 25,000 RU. After immobilization the chip was immediately inactivated by injecting 1 M ethanolamine, pH 8.5 at 10 µl/min for 600 s. The chip was kept running in the HBS buffer (GE Healthcare) comprising 10 mM HEPES, pH 8.0, 150 mM NaCl. Of all, 5 µg/ml recombinant GST, GST-HRAS^G12V-GTPγS or GST-HRAS^G12V-GDP proteins were injected into flow cell Fc4, Fc2 and Fc3, respectively for trapping through the immobilized anti-GST antibody. The GST-HRAS^G12V-GTPγS, GST-KRAS^G12V-GppNHpp, or GST-HRAS^G12V-GDP proteins were injected at 5 µl/min for 900 s and usually reached approximately 2000–2500 RU. The GST was injected at same flow rate until about 1200–1350 RU which is 0.54 times less than the GST-HRAS^G12V-GTPγS or GST-HRAS-GDP capture amounts, taking into consideration relative molecular weights (GST, 26KDa, GST-RAS, 48KDa, respectively). Before fragment library screening, the running buffer was replaced by 20 mM Tris, pH 8, 150 mM NaCl, 5 mM MgCl2, 5% DMSO. DMSO solvent correction curves were generated by injecting the running buffers with serial concentrations of DMSO ranging from 4.5 to 6%. […] The individual compounds were injected at 30 µl for 60 s at 30 µl/min flow rate over flow cells Fc1, Fc2, Fc3 and Fc4. The captured GST and GST-RAS were removed from the chip by rinsing with 40 µl 10 mM glycine-HCl, pH 2.1 at 20 µl/min flow rate after every 48 compounds sequential injection. The chip was regenerated by injecting new GST and GST-RAS proteins as described above.

PI3KC2 = assay: Kinase panel (KinaseProfiler), second PI3KC2 line; assay type: biochemical, human; conditions: PI3KC2 (second of two lines), 10μM
Procedure: Experiments were performed by Eurofins Pharma Discovery Services. The KinaseProfiler™ assay protocol guide can be downloaded from their website: www.eurofins.com/discoveryservices. The guide contains information on the buffer conditions, substrate and reference inhibitor blank used for each kinase.
Supplementary Table 3. Assessment of potential interaction of Abd-7 with a human kinase
Kinase % kinase activity in
A panel of 14 Kinases (relevant to the RAS pathway) has been screened against Abd-7
(10μM) and the kinase activity was measured. […] of activity was observe for all
function of the selected and RAS relevant kinase proteins.

[1] = Caco-2 cell permeability assay; assay type: in vitro ADME; conditions: human
[2] = system: AKT phosphorylation (Ser473) in DLD-1 cells (KRAS^G13D); assay: Biomarker phosphorylation assay, pAKT, DLD-1; assay type: cell-based, human; conditions: EGF 10 min
Procedure: Fig. 5 Abd-7 results on RAS-dependent signalling pathways and cell viability. a, b DLD-1 (a) or H358 (b) cells were serum-starved for 24 h, incubated in mono-layer with Abd-7 in a range from 2, 5, 10 and 20 μM for 3 h and stimulated with EGF 10 min. Proteins were extracted and separated by SDS-PAGE and transferred to membranes for Western analysis with anti-pAKT, anti-pERK, anti-pan AKT and anti-pan ERK. Anti-cyclophilin B antibody was the loading control. Signal was developed using standard ECL. c–e Effects of compounds Abd-2, Abd-4, Abd-5, Abd-6, and Abd-7 on the viability of human cancer cells lines was assessed for a 2-D culture of DLD-1 (mutant KRAS^G13D) cells and HT1080 cells (mutant NRAS^Q61K). The cells were treated with a dose range from 0 μM to 20 μ and incubated for 72 h when cell viability was assessed using CellTitreGlo. […] Each experiment was repeated at least three times (a, b) and four times (c, d). Where error bars are presented, they correspond to mean values ± SD of biological repeats
A total of 450,000 DLD1 or 640,000 H358 cells were seeded per well of a six well plate. Approximately, 20 h later, the medium was removed, the cells washed twice with PBS and DMEM without FBS was added and left for 24 h. The medium was removed and 2 ml of DMEM no FBS was added with the appropriate concentration of compound (DMSO, 2, 5, 10 or 20 μM) for 3 h. Cells were stimulated with EGF (50 ng/ml) for 10 min, washed once with PBS and directly lysed in SDS-Tris buffer (1% SDS, 10 mM Tris-HCl pH 7.4) supplemented with protease inhibitors (Sigma) and phosphatase inhibitors (Thermo-Fisher). Cell lysates were sonicated with a Branson Sonifier and the protein concentrations determined by using the Pierce BCA protein assay kit (Thermo-Fisher). Furthermore, 10 μg of protein were resolved on 10 or 12.5% SDS-PAGE and subsequently transferred onto a PVDF membrane (GE). The membrane was blocked (with 10% non-fat milk (Sigma) or 10% BSA (Sigma) in TBS-0.1% Tween20) and incubated overnight with primary antibody at 4 °C. […]

T1 sequence (P01116 1-188 isoform P01116-2 G12V): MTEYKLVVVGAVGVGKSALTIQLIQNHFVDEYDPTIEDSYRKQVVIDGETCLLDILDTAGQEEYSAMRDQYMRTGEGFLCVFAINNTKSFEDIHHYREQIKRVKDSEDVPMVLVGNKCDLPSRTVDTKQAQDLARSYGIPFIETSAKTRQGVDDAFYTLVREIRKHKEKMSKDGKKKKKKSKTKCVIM

Row | Structure (SMILES) | binding to KRAS^G12V-GppNHp (SPR) (KRAS^G12V-GppNHp) | % kinase activity in the presence of Abd-7 (PI3KC2) | Papp A→B [1] | Papp B→A [1] | inhibition of AKT phosphorylation ([2]; DLD-1, 20 μM, 3 h) | concentration at which inhibition of AKT phosphorylation initiates ([2]; DLD-1, starved 24 h, 3 h compound, Western) | inhibition at 10 µM ([2]; Homo sapiens, DLD-1, 10 μM, 3 h)
1 | O=C(NCC1COc2ccccc2O1)c1ccco1 (stereo not shown) [Abd-2] | binds | – | – | – | – | – | –
2 | COc1nc(-c2cccc3c2OCCO3)ccc1Nc1ccc(CN(C)C)cc1 [Abd-7] | – | 108% | 7.03 ×10⁻⁶ cm/s | 8.46 ×10⁻⁶ cm/s | complete inhibition | 2 µM | > 50%
